Experiment [1] concerns Human Ovarian cancer cells, A2780. As to the kind of experiment: CHIP array: whole genome expression (HumanHT-12 v4.0 BeadChip). Format: cell-based. Particulars: 12 or 24 hours, vs control or untreated cells; for Fold change expression of ATF / Fold change expression of NMDAR2C: direction ↑; for Fold change expression of RAB27A / Fold change expression of SLC39A3: direction ↓. Here is the method: Human Ovarian cancer cells, A2780, were treated with compound and different concentration for 12 or 24 hours. The total RNA from the treated human cells were extracted by Trizol (Invitrogen) and purified by Rneasy Mini kit (Qiagen, Valencia, Calif.). The concentration and integrity of all RNA samples were assessed using the NanoDrop ND-2000 spectrophotometer (NanoDrop Technologies, Wilmington, Del.) and the Bioanalyzer 2100 system (Agilent Technologies, Santa Clara, Calif.). 1 ug of total RNA from each sample were subjected to whole-genome gene expression analysis at the Microarray Core Facility of University of Texas Southwestern Medical Center (https://microarray.swmed.edu) using the HumanHT-12 v4.0 BeadChip (Illumina, San Diego, Calif.) according to the manufacturer's instructions. Microarray data were extracted using BeadStudio v3.1 software, background-subtracted, and normalized using a cubic spline algorithm. Genes differentially expressed between groups were identified using the Illumina custom error model implemented in BeadStudio. […] The pathways and interaction networks that the genes involved were further analyzed by Ingenuity Pathyway analysis software (www.ingenuity.com).
The treatment of A2780, human ovarian cancer cell line at different concentrations were examined for the differential gene expression compared to the whole human genome and compared to untreated samples (controls). A representative heat map reflecting the fold change in expressions of genes modulated by RRD2 involved in neurodegenerative diseases is shown in FIG. 3. […] These genes are implicated in neurological disorders and neurodegenerative diseases and the modulation of these genes by Phosphaplatins is significant for providing neuroprotection.

Experiment [2] deals with A2780 ovarian cancer cells. Nature of the experiment: Western blot protein expression. Particulars: for ATF3 protein expression compared to control / HPD protein expression compared to control / NMDAR2C protein expression compared to control / RAB27A protein expression compared to control / SLC39A3 (ZIP3) protein expression compared to control / SQSTM1 protein expression compared to control: 24 hrs treatment, Western blot. The experiment is classed as cell-based, human. As to the method:
A2780 ovarian cancer cells cell line was cultured in 60 or 100 mm^3 cell culture dishes. Once the plated were 80% confluent, the cells were incubated in the presence and absence of either R,R-D2 or R,R-D4. After 24 hrs of drug treatment, proteins were extracted from the cells using 200-500 μl of either RIPA or MPER protein extraction reagent buffer or both. Halt protease inhibitor cocktail from Thermo Fisher was added to the protein extraction reagents. The protein concentration was measured using BCA kit from Promega. The freshly extracted proteins (40 to 50 μg) were run on a 4-12% or 4-20% tris-glycine gels, at 120 V for 2 to 3 hours after which the proteins were transferred onto nitrocellulose membranes for one hour. Then the blots were incubated in 5% milk. The following primary antibodies were incubated overnight in 5% milk. These antibodies include: mouse anti-rabbit IgG-FITC, mouse anti-goat IgG-PE, anti-mouse IgG2a-PE, SQSTM1 (D-3), Egr-2 (H-220), ZIP3 (D-14), TOX1 (T-12), ATF-3 (H-90), NMDAμ4 (C-20), HPPD (H-300), Fos B (C-20), PPT2 (C-18), Hep G2 Cell Lysate, TMEM106B (C-12), xCT (Q-18) after which the proteins were detected by species-specific HRP-conjugated secondary antibody using ECL chemiluminescence kit purchased from GE health care.
To confirm that the modulation of the genes listed in Table 1, following treatment with RRD2 and RRD4 in the human ovarian cancer cell line, A2780, also affects the protein expression of these genes, some representative genes from Table 1 were assessed for their corresponding protein expression as measured by Western Blot using protein specific antibodies. The protein expressions for HPD, SQSTM1, ATF3, NMDAR2C were higher compared to the control samples while RAB27A and SLC39A3 (ZIP3) expressions were lower than the control samples following treatment with the aforementioned compounds (FIGS. 4A-4B). Note that HPD and NMDAR2C were calibrated against both actin and GADPH (FIG. 4C). As indicated in the Tables, overexpressed proteins/genes are implicated in protecting neurons from a variety of neurodegenerative diseases.

Experiment [3] concerns hippocampal slices, CA1 pyramidale layer. Nature of the experiment: Whole cell current-clamp recordings of action potentials in hippocampal slices. The experiment is classed as cell-based. Particulars: rat hippocampal slices perfused with 20 μM, vs control, N=6. As to the method:
(§1) Sprague-Dawley male rats (P14-18) were deeply anesthetized with ether and after the decapitation, the brains were removed rapidly and laced in the fresh high sucrose dissection solution. After hippocampus isolation, hippocampal slices ([…]) were prepared using a Vibratome. The prepared slices were incubated in the artificial cerebrospinal fluid (ACSF) (pH 7.3) for half an hour. After incubating period, slices were transferred to recording chamber while oxygenated ACSF was continuously perfused constantly with the rate of 2 ml/min at 30° C. Borosilicate glass recording electrodes were filled with 0.9% NaCl (1-2 MΩ) and used for extracellular field potential recordings. Extracellular recordings were done from the border area between radiatum and pyramidale layers. Filled micropipettes (4-7 MΩ) containing intracellular solution were used for whole cell current-clamp recordings in the CA1 pyramidale layer. To elicit action potential activity, depolarizing square wave current pulses incremented by 20 pA were injected into the somas for 500-1000 ms, followed by 10 ms return to the baseline holding membrane potential (−80 mV). In addition, to square wave current pulses, slow depolarizing ramp-like current injections were used to quantify action potential threshold values. Neuronal membrane and field potential recordings were performed in control and in the RRD4 groups. RDD4 group brain slices were perfused with 20 μM RRD4. Zero magnesium model of inducing epileptiform activities was used in these experiments. In the treated group slices were incubated in 20 μM RRD4 for 15 minutes, and then were exposed to zero magnesium solution.
The neurodegeneration observed in many diseases has been associated with a progressive decrease in neuronal activity and synaptic dismantling is associated with many neurodegenerative diseases. A potential strategy for preventing and/or halting neurodegenerative disease is by modulating intrinsic properties of individual neurons. Applicants observed that RRD4 pretreatment increased action potential threshold (FIG. 5). Action potential threshold was measured at the beginning of the sharp upward rise of the depolarizing phase of the action potential. (*P<0.05). Based on the data, RRD4 increases action potential (AP) threshold and decreases its amplitude. […] Further, pretreated slices with RRD4 had lower peak potential amplitude (FIG. 6). Mean values for the AP amplitude is voltage difference in 10-90% rise time in each action potential. (*P<0.05).

The test system of experiment [4] is hippocampal slices. As to the kind of experiment: Zero magnesium model of epileptiform activity in hippocampal slices. Format: cell-based, rat. As to conditions: slices incubated in 20 μM for 15 minutes, then zero magnesium solution, N=6. As to the method:
as §1, with “RDD4 group brain slices were perfused with 20 μM RRD4. Zero magnesium model of inducing epileptiform activities was used in these experiments. In the treated group slices were incubated in 20 μM RRD4 for 15 minutes, and then were exposed to zero magnesium solution.” left out

“Also recorded” adds a separate entry of the source.

`N[C@@H]1CCCC[C@H]1N.O=P([O-])(O)OP(=O)([O-])O.[Pt+2]` [RRD2]: in experiment [1], the “Fold change expression of ATF” value is given as 10↑ fold, the “Fold change expression of NMDAR2C” value is recorded as 8↑ fold, the “Fold change expression of RAB27A” value is on record as 1.7↓ fold and the “Fold change expression of SLC39A3” value was 2↓ fold. Further, the “RAB27A protein expression vs untreated cells” value in experiment [2] (20 μM, FIG. 4A) is recorded as “overexpressed in untreated cells as compared to cells treated”. Further, in experiment [2], the “ATF3 protein expression compared to control” value was “higher”, the “HPD protein expression compared to control” value was “higher”, the “NMDAR2C protein expression compared to control” value is reported as “higher” and the “RAB27A protein expression compared to control” value was “lower”. Further, in experiment [2], the “SLC39A3 (ZIP3) protein expression compared to control” value is “lower” and the “SQSTM1 protein expression compared to control” value is listed as “higher”.

Consider `NC1CCCCC1N.O=P1(O)OP(=O)(O)[O][Pt]([OH])([OH])[O]1` [RRD4], for which, in experiment [1], the “Fold change expression of ATF” value is recorded as 10↑ fold, the “Fold change expression of NMDAR2C” value is 8↑ fold, the “Fold change expression of RAB27A” value was 1.7↓ fold and the “Fold change expression of SLC39A3” value was 2↓ fold. Further, in experiment [2] (25 μM, FIG. 4A), the “RAB27A protein expression vs untreated cells” value was “overexpressed in untreated cells as compared to cells treated” and the “SQSTM protein expression vs untreated cells” value is “enhanced expression”. Further, in experiment [2], the “ATF3 protein expression compared to control” value is recorded as “higher”, the “HPD protein expression compared to control” value was “higher”, the “NMDAR2C protein expression compared to control” value is “higher” and the “RAB27A protein expression compared to control” value is “lower”. In experiment [2], the “SLC39A3 (ZIP3) protein expression compared to control” value is “lower” and the “SQSTM1 protein expression compared to control” value is “higher”. Besides, in experiment [3], the “Action potential (AP) amplitude” value was “lower; also recorded: decreased significantly”, the “Action potential (AP) threshold” value is reported as “increased; also recorded: raised”, the Input resistance result was “no effect” and the “Membrane depolarization in treated cells” value is on record as “significantly more depolarized”. Besides, the “Time to seizure onset (seizure threshold, first seizure formation)” value in experiment [4] is “significant effect in delaying; also recorded: significantly delayed”.

Values taken from patent US20170224711A1, “COMPOSITIONS AND METHODS FOR THE TREATMENT OF NEURODEGENERATIVE DISEASES” (University of Houston System, priority 2014, published 2017).
